Assay results as given in PMC10033419, “Blocking NS3–NS4B interaction inhibits dengue virus in non-human primates” (Nature, 2023).
Where “and” joins values, the source holds several entries; their conditions need not be identical. Equal values may be shown once.

System: DENV-2 RL strain
Assay: In vivo kinetics study, low viral inoculum (10^2 PFU)
[1] = 2 mg/kg/d, day 4 p.i., individual mice
[2] = 2 mg/kg/d, day 5 p.i., individual mice
[3] = 20 mg/kg/d, day 1 p.i., individual mice
[4] = 20 mg/kg/d, day 2 p.i., individual mice
[5] = 20 mg/kg/d, day 3 p.i., individual mice
[6] = 20 mg/kg/d, day 4 p.i., individual mice
[7] = 20 mg/kg/d, day 5 p.i., individual mice
[8] = JNJ-1802 0.2 mg/kg/d, day 5 p.i., individual mice, 0.2 mg/kg/day
[9] = JNJ-1802 0.2 mg/kg/d, day 6 p.i., individual mice, 0.2 mg/kg/day
[10] = JNJ-1802 0.2 mg/kg/d, day 8 p.i., individual mice, 0.2 mg/kg/day
[11] = JNJ-1802 0.2 mg/kg/d, day 11 p.i., individual mice
[12] = JNJ-1802 2 mg/kg/d, day 5 p.i., individual mice
[13] = JNJ-1802 2 mg/kg/d, day 6 p.i., individual mice
[14] = JNJ-1802 2 mg/kg/d, day 8 p.i., individual mice
[15] = JNJ-1802 2 mg/kg/d, day 11 p.i., individual mice, 2 mg/kg/day
[16] = JNJ-1802 20 mg/kg/d, day 5 p.i., individual mice
[17] = JNJ-1802 20 mg/kg/d, day 6 p.i., individual mice
[18] = JNJ-1802 20 mg/kg/d, day 8 p.i., individual mice
[19] = JNJ-1802 20 mg/kg/d, day 11 p.i., individual mice

COc1cc(N[C@H](C(=O)c2c[nH]c3ccc(OC(F)(F)F)cc23)c2ccc(Cl)cc2OC)cc(S(C)(=O)=O)c1 [JNJ-1802]
In vivo kinetics, Mean of Log10 (2 mg/kg/d, day 4 p.i., group mean): 2.59 Log10 | In vivo kinetics, Copies/ml [1]: 3.93E+02 Copies/ml | In vivo kinetics, Log10 of Copies/ml [1]: 2.5940 Log10 | In vivo kinetics, Mean of Log10 (2 mg/kg/d, day 5 p.i., group mean): 2.59 Log10 | In vivo kinetics, Copies/ml [2]: 3.93E+02 Copies/ml | In vivo kinetics, Log10 of Copies/ml [2]: 2.5940 Log10 | In vivo kinetics, Mean of Log10 (20 mg/kg/d, day 1 p.i., group mean): 2.59 Log10 | In vivo kinetics, Copies/ml [3]: 3.93E+02 Copies/ml | In vivo kinetics, Log10 of Copies/ml [3]: 2.5940 Log10 | In vivo kinetics, Mean of Log10 (20 mg/kg/d, day 2 p.i., group mean): 2.59 Log10 | In vivo kinetics, Copies/ml [4]: 3.93E+02 Copies/ml | In vivo kinetics, Log10 of Copies/ml [4]: 2.5940 Log10 | In vivo kinetics, Mean of Log10 (20 mg/kg/d, day 3 p.i., group mean): 2.75 Log10 | In vivo kinetics, Copies/ml [5]: 3.93E+02 Copies/ml and 6.76E+03 Copies/ml | In vivo kinetics, Log10 of Copies/ml [5]: 2.5940 Log10 and 3.8298 Log10 | In vivo kinetics, Mean of Log10 (20 mg/kg/d, day 4 p.i., group mean): 2.59 Log10 | In vivo kinetics, Copies/ml [6]: 3.93E+02 Copies/ml | In vivo kinetics, Log10 of Copies/ml [6]: 2.5940 Log10 | In vivo kinetics, Mean of Log10 (20 mg/kg/d, day 5 p.i., group mean): 2.76 Log10 | In vivo kinetics, Copies/ml [7]: 3.93E+02 Copies/ml and 7.90E+03 Copies/ml | In vivo kinetics, Log10 of Copies/ml [7]: 2.5940 Log10 and 3.8977 Log10 | effect on body weight (20, 2 or 0.2 mg per kg per day b.i.d., 6 days): did not affect body weight | mean viral load vs vehicle (20 and 2 mg per kg per day b.i.d., on 6 out of 8 days): reduced to undetectable levels | In vivo kinetics - viral RNA, Copies/ml [8]: 4.57E+04 Copies/ml and 9.46E+04 Copies/ml and 4.38E+05 Copies/ml | In vivo kinetics - viral RNA, Log10 [8]: 4.6597 Log10 and 4.9759 Log10 and 5.6413 Log10 | In vivo kinetics - viral RNA, Mean of Log10 (JNJ-1802 0.2 mg/kg/d, day 6 p.i., group mean): 4.69 Log10 | In vivo kinetics - viral RNA, Copies/ml [9]: 4.46E+04 Copies/ml and 2.63E+04 Copies/ml and 2.31E+04 Copies/ml and 1.84E+05 Copies/ml and 8.21E+04 Copies/ml and 8.40E+03 Copies/ml | In vivo kinetics - viral RNA, Log10 [9]: 4.6493 Log10 and 4.4198 Log10 and 4.8549 Log10 and 5.1560 Log10 and 4.3639 Log10 and 5.2645 Log10 and 4.9143 Log10 and 3.9243 Log10 | In vivo kinetics - viral RNA, Mean of Log10 (JNJ-1802 0.2 mg/kg/d, day 8 p.i., group mean): 3.63 Log10 | In vivo kinetics - viral RNA, Copies/ml [10]: 3.93E+02 Copies/ml and 4.25E+05 Copies/ml and 5.92E+05 Copies/ml | In vivo kinetics - viral RNA, Log10 [10]: 2.5940 Log10 and 5.6283 Log10 and 5.7725 Log10 | In vivo kinetics - viral RNA, Mean of Log10 (JNJ-1802 0.2 mg/kg/d, day 11 p.i., group mean): 2.59 Log10 | In vivo kinetics - viral RNA, Copies/ml [11]: 3.93E+02 Copies/ml | In vivo kinetics - viral RNA, Log10 [11]: 2.5940 Log10 | In vivo kinetics - viral RNA, Copies/ml [12]: 3.93E+02 Copies/ml | In vivo kinetics - viral RNA, Log10 [12]: 2.5940 Log10 | In vivo kinetics - viral RNA, Mean of Log10 (JNJ-1802 2 mg/kg/d, day 6 p.i., group mean): 2.59 Log10 | In vivo kinetics - viral RNA, Copies/ml [13]: 3.93E+02 Copies/ml | In vivo kinetics - viral RNA, Log10 [13]: 2.5940 Log10 | In vivo kinetics - viral RNA, Mean of Log10 (JNJ-1802 2 mg/kg/d, day 8 p.i., group mean): 2.59 Log10 | In vivo kinetics - viral RNA, Copies/ml [14]: 3.93E+02 Copies/ml | In vivo kinetics - viral RNA, Log10 [14]: 2.5940 Log10 | In vivo kinetics - viral RNA, Mean of Log10 (JNJ-1802 2 mg/kg/d, day 11 p.i., group mean): 2.74 Log10 | In vivo kinetics - viral RNA, Copies/ml [15]: 3.93E+02 Copies/ml and 3.01E+03 Copies/ml | In vivo kinetics - viral RNA, Log10 [15]: 2.5940 Log10 and 3.4790 Log10 | In vivo kinetics - viral RNA, Copies/ml [16]: 3.93E+02 Copies/ml | In vivo kinetics - viral RNA, Log10 [16]: 2.5940 Log10 | In vivo kinetics - viral RNA, Mean of Log10 (JNJ-1802 20 mg/kg/d, day 6 p.i., group mean): 2.59 Log10 | In vivo kinetics - viral RNA, Copies/ml [17]: 3.93E+02 Copies/ml | In vivo kinetics - viral RNA, Log10 [17]: 2.5940 Log10 | In vivo kinetics - viral RNA, Mean of Log10 (JNJ-1802 20 mg/kg/d, day 8 p.i., group mean): 2.59 Log10 | In vivo kinetics - viral RNA, Copies/ml [18]: 3.93E+02 Copies/ml | In vivo kinetics - viral RNA, Log10 [18]: 2.5940 Log10 | In vivo kinetics - viral RNA, Mean of Log10 (JNJ-1802 20 mg/kg/d, day 11 p.i., group mean): 2.59 Log10 | In vivo kinetics - viral RNA, Copies/ml [19]: 3.93E+02 Copies/ml | In vivo kinetics - viral RNA, Log10 [19]: 2.5940 Log10 | In vivo kinetics, Mean of Log10 (mouse, in vivo): 2.78 Log10 | In vivo kinetics - viral RNA, Copies/ml (mouse, in vivo, 0.2 mg/kg/day): 7.16E+04 Copies/ml and 1.43E+05 Copies/ml
